According to patent US20150265682A1, “THERAPEUTIC METHODS AND COMPOSITIONS FOR TREATING DIABETES” (Orient Europharma Co., Ltd., priority 2014, published 2015):

Experiments:
[1] = system: normal, T1DM and T2DM mice; test: Plasma insulin levels before and after treatment; type: in vivo, ICR mice; conditions: for Plasma insulin Before-treatment: metformin 300 mgkg^−1 group; for Plasma insulin After-treatment: metformin 300 mgkg^−1 i.p.
Method: The 4-week-old male ICR mice were purchased from the Animal Center of the College of Medicine, National Taiwan University (Taipei, Taiwan) with delicate humane care. This animal study was conducted by following the University ethical guidelines and the ‘Guide for the Care and Use of Laboratory Animals’ published by the US National Institutes of Health (NIH publication no. 85-23, revised 1996). The animal experiments were approved by the Institutional Animal Care and Use Committee (IACUC) of the National Taiwan University (IACUC No. 20110073). Animals were housed in a room at the constant temperature, 22±1° C., with 12 hours light and dark cycles.
(§1) After three days of acclimatization, the mice had free access to a standard rodent chow (normal mice), a standard rodent chow after single […] streptozotocin (STZ) intraperitoneal injection (T1DM mice), and a fat-rich chow diet and fructose-sweetened water (T2DM mice) for 4 weeks. The induction of Type 1 DM was assessed and confirmed when the mice had plasma glucose levels ≧350 mgdL^−1, accompanied with polyuria, hyperphagia and decreased body weight. The induction Type 2 DM in the mice was assessed by measuring fasting plasma glucose levels and confirmed when plasma glucose level was ≧150 mgdL^−1 after the 4-week induction. The animals were assigned randomly into three groups, with seven animals in each group. In group I, the mice were treated with vehicle, 2% DMSO in normal saline, as the negative control. In group II, the mice were intraperitoneally treated with borapetoside A (0.1-10 mgkg^−1). In group Ill, the positive control, the mice received intraperitoneally metformin (300 mgkg^−1; Sigma Chemical Co., St. Louis, Mo., U.S.A.) or insulin (0.5 IUkg^−1; Insulin Actrapid® HM; Novo Nordisk, Denmark). In the acute study, mice under anesthesia received a single intraperitoneal administration of borapetoside A, negative control, or positive control. In the subacute study, mice received intraperitoneal administrations of borapetoside A, vehicle, or insulin twice a day for seven days.
(§2) Blood samples were collected from the orbital vascular plexus of the mice under anesthesia. Blood samples were then centrifuged at 13000 rpm for 5 min, and the plasma samples were collected and kept on ice prior to the assay. The plasma glucose concentration was measured by Glucose Kit Reagent (Biosystems S. A., Barcelona, Spain) following the manufacturer's instructions, and the insulin levels were estimated using mouse insulin ELISA kit (Mercodia AB, Uppsala, Sweden).

[2] = system: normal mice and mice with type 2 DM; test: Intraperitoneal glucose tolerance test (IPGTT); type: in vivo, ICR mice; conditions: normal and type 2 DM mice; borapetoside A 0.1, 1 and 10 mgkg^−1; metformin
Method: as §1, §2
The mice were maintained under anesthesia throughout the procedure. Glucose (2.0 gkg^−1) was administered intraperitoneally. Blood samples were collected from the orbital vascular plexus at 0, 30, 60, 120 min. The concentrations of the plasma glucose were measured, and the values of AUC were calculated accordantly.

## CN(C)C(=N)N=C(N)N [Metformin, metformin, reference compound]
[1]; Normal mice
  Plasma insulin Before-treatment: 66.6 ± 1.3 pmol/L
  Plasma insulin After-treatment: 72 ± 3.1 pmol/L
[1]; T1DM mice
  Plasma insulin Before-treatment: 22.4 ± 0.4 pmol/L
  Plasma insulin After-treatment: 22.7 ± 0.3 pmol/L
[1]; T2DM mice
  Plasma insulin Before-treatment: 148.1 ± 15.2 pmol/L
  Plasma insulin After-treatment: 182.0 ± 27.7 pmol/L
[2]
  increase of plasma glucose level at 30 min in IPGTT, compared to the vehicle group: significantly suppressed
